For one assay, the system named is 5-HT2 receptor. Briefly: DOI-induced head twitch model in mice. It counts as in vivo. To be noted: p.o., 0.5 hr before s.c. DOI.
The test system of a further assay is mTORC1 signaling pathway. Briefly: mTORC1 signaling pathway in mPFC of adult rats, dose range study. To be noted: Formula A 1 to 8 mg/kg i.p.; ketamine 30 mg/kg; 60 min, 90 min or 24 hours. It counts as in vivo, rat.
The next assay concerns AKT (at Threonine 308). The assay can be described thus: Phosphorylation of mTOR pathway proteins in rat PFC: AKT. The settings on record: 1 hour and 24 hours after one i.p. injection; ketamine 30 mg/kg, Formula A 3 mg/kg. In kind it is in vivo.
Another assay deals with mTOR (at Serine 2448). The assay can be described thus: Phosphorylation of mTOR pathway proteins in rat PFC: mTOR. It counts as in vivo. The settings on record: one i.p. injection; ketamine 30 mg/kg, Formula A 3 mg/kg.
For the next assay, the target named is D2 (Homo sapiens (Human), UniProt P14416).
Assay [1] concerns P70s6 kinase (at Threonine 389). Briefly: Phosphorylation of mTOR pathway proteins in rat PFC: P70s6 kinase. In kind it is in vivo. The settings on record: over 24 hours after one i.p. injection; ketamine 30 mg/kg, Formula A 3 mg/kg.
Assay [2] is described as follows: Clinical studies in patients with acute exacerbated schizophrenia. In kind it is in vivo, human. The settings on record: 60 mg P.O. once daily, up to 28 days. From the text:
Social avoidance can be a critical and debilitating symptom in patients suffering from anxiety disorders, especially social anxiety disorder, as well as in patients suffering from traumatic anxiety disorders. Social avoidance is often one of the key determinants of whether a person with a severe anxiety disorder is capable of maintaining familial relationships or employment relationships. […] Negative symptoms of schizophrenia can be divided into two categories: emotional experience (e.g., emotional withdrawal, passive social withdrawal, active social avoidance) and emotional expression (e.g., blunted effect, poor rapport, lack of spontancity, and motor retardation). […] These are the symptoms that are most highly correlated with interpersonal functioning.

Assay [3] deals with NMDA receptor currents in mPFC neurons. The assay can be described thus: NMDA-induced currents in rat mPFC slices, whole-cell patch clamp. In kind it is cell-based. From the text:
(§1) Combined administration of the antipsychotic, olanzapine, and the SSRI, fluoxetine, similarly induces rapid antidepressant activity in humans and animals (Tohen et al., 2010); likewise, combined application of olanzapine and fluoxetine is required to induce AMPA receptor currents in vitro.
On the technique in general: The patch-clamp technique gives a direct electrical read-out from membranes.

In assay [4] the test system is AMPA receptor currents in mPFC neurons. Briefly: AMPA-induced currents in rat mPFC slices, whole-cell patch clamp. In kind it is cell-based.
Excerpt: as §1

The target of another assay is 5-HT2A (Homo sapiens (Human), UniProt P28223).
For assay [5] the following is noted: 40-minute infusion, total dose 0.5 mg/kg; after 24 hours; cited from earlier work.
Where [6] appears, read: bath applied 3-100 nM, 5 min later.

As to `O=C1CN2c3c(cccc3[C@@H]3CN(CCCOc4ccc(F)cc4)CC[C@@H]32)N1` [Example 1, (6bR,10aS)-8-(3-(4-fluorophenoxy)propyl)-6b,7,8,9,10,10a-hexahydro-1H-pyrido[3′,4′:4,5]pyrrolo[1,2,3-de]quinoxalin-2(3H)-one], in the assay with 5-HT2 receptor, the “EC50 for reducing DOI-induced head twitches” value stood at 0.44 mg/kg.
What is called Ki is the equilibrium dissociation constant of an inhibitor or competing ligand from its target. The low end stands for tighter binding, the high end for weaker binding. With `CN1CCN2c3c(cccc31)[C@@H]1CN(CCCC(=O)c3ccc(F)cc3)CC[C@@H]12` [Formula A, lumateperone], the “activation of mTORC1 signaling pathway in mPFC (p-Akt thr308, p-P70S6K)” value in the assay with mTORC1 signaling pathway was “rapidly activates the mTORC1 signaling pathway”. In addition, the “increase in phosphorylation of AKT at thr308” value with AKT (at Threonine 308) is about 50%. For the same compound, the “change in mTOR phosphorylation” value with mTOR (at Serine 2448) is “Neither ketamine nor the Compound of Formula A results in a change”. The figures for the inhibition constant Ki on D2 and at 5-HT2A were 49 nM and 10 nM, respectively. Further, the p70s6K phosphorylation entry in assay [1] is given as “progressively increases”. Also, the “symptoms of emotional experience compared to placebo” value in assay [2] was “significant and unexpected improvement”. For the same compound, in [3] (30 nM), the “NMDA-induced currents compared to control” value is on record as about 150%. In addition, in [3] (setting [6]), the NMDA currents result is “enhanced”. The “AMPA-induced currents compared to control” value in assay [4] (30 nM, alone and with SCH 23390 (1 μM)) is given as “Substantially the same results”. Moreover, the AMPA currents result in assay [4] (setting [6]) was “enhanced”.
For `Cc1cc2c(s1)Nc1ccccc1N=C2N1CCN(C)CC1` [olanzapine], the activity at 0.003 µM in [4] (Rattus norvegicus, Neuron, 3 nM olanzapine alone, read-out: AMPA-induced current, % of control) was about 100%.
`CNCCC(Oc1ccc(C(F)(F)F)cc1)c1ccccc1` (stereo not shown) [fluoxetine]: in assay [4] (Rattus norvegicus, Neuron, 100 nM fluoxetine, read-out: AMPA-induced current, % of control), the activity at 0.1 µM is about 90%.
As to `CNC1(c2ccccc2Cl)CCCCC1=O` (stereo not shown) [ketamine], the “activation of mTORC1 signaling pathway in mPFC (p-Akt thr308, p-P70S6K)” value with mTORC1 signaling pathway was “rapidly activates the mTORC1 signaling pathway”. The “increase in phosphorylation of AKT at thr308” value with AKT (at Threonine 308) is about 50%. Further, the “change in mTOR phosphorylation” value with mTOR (at Serine 2448) was “Neither ketamine nor the Compound of Formula A results in a change”. Also, the p70s6K phosphorylation entry in assay [1] is given as “transiently increase”. Further, the “ratings on the Hamilton Depression Rating Scale (HDRS) compared to placebo” value in assay [5] was “significantly improved”.

The values are drawn from US20240307386A1 (priority 2018, published 2024).
